Source: patent US20110028441A1, “NOVEL PHENYL-SUBSTITUTED PIPERAZINO-DIHYDROTHIENOPYRIMIDINES” (BOEHRINGER INGELHEIM INTERNATIONAL GMBH, priority 2007, published 2011)
Read-outs that look alike come from different tables or passages of the source.

Target: PDE4B (Homo sapiens, UniProt Q07343)
Experiment: Scintillation Proximity (SPA) Assay of PDE4B enzyme inhibition
Assay type: biochemical
Settings: read-out: % Inhibition PDE4B @ 1 μM
Experimental: The inhibitions (in %) at 1 μM of the individual Example substances are included in the following Tables of Examples and were determined as follows:
The Scintillation Proximity (SPA) Assays (GE Healthcare, No. TRKQ7090) make use of the different affinities of cyclic 3′-5′-adenosine monophosphate (cAMP, low affinity) and linear 5′-adenosine monophosphate (AMP, high affinity) for yttrium silicate scintillator beads. The cAMP specific phosphodiesterase (PDE) PDE4B cleaves the 3′-phosphoester bond of the tritium-labelled [H3]-cAMP to form the [H3]-5′-AMP. Because of its higher affinity for the scintillator beads this [H3]-AMP accumulates on the beads and causes scintillation events (flashes of light) which are measured in a Wallac Microbeta Scintillation Counter.
The test starts with one hours incubation of [H3]-cAMP with the PDE4B enzyme in assay buffer at 30° C., once with the Example substance that is to be tested (in a concentration of 1 μM) and once without the Example substance that is to be tested. After this incubation the reaction is stopped by the addition of the beads. The beads are given an opportunity to settle over the next 45 minutes, then they are measured in the Scintillation Counter. If the substance is capable of inhibiting the enzymatic activity of the PDE4B, less [H3]-AMP is formed during the incubation phase and fewer scintillation events can be measured.

[1] = test substance 1 μM, one hour incubation of [H3]-cAMP with PDE4B enzyme at 30° C.

PDE4B, sequence (Q07343 whole entry, species assumed): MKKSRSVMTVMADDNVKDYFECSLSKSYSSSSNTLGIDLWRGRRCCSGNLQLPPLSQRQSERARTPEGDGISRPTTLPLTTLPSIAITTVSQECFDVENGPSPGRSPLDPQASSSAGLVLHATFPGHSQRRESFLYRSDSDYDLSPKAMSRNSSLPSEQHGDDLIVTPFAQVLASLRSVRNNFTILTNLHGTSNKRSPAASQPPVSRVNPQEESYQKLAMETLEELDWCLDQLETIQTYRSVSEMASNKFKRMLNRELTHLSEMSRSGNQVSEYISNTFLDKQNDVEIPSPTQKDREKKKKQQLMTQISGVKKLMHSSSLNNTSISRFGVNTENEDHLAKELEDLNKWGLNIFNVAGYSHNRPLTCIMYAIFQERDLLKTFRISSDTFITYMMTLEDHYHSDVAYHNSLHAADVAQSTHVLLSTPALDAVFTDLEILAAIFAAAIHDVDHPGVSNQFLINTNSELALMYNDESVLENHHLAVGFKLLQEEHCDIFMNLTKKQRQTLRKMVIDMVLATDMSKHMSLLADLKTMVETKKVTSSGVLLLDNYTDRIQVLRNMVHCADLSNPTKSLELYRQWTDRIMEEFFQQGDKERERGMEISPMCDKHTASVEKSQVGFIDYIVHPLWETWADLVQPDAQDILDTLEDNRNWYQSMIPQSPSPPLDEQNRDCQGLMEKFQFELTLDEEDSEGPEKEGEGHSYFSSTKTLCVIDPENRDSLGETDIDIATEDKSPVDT

| SMILES | inhibition at 1 µM [1] [%] | inhibition at 1 µM [%] |
| --- | --- | --- |
| [O-][S+]1CCc2nc(N3CCN(c4ccc(Cl)cc4F)CC3)nc(NC3CCOCC3)c21 (stereo not drawn) [Example 107, {2-[4-(4-CHLORO-2-FLUOROPHENYL)-PIPERAZIN-1-YL]-5-OXO-6,7-DIHYDRO-5H-5λ^4-THIENO[3,2-D]PYRIMIDIN-4-YL}-(TETRAHYDROPYRAN-4-YL)-AMINE] | 94 |  |
| CC(C)[C@H](CO)Nc1nc(N2CCN(c3ccc(Cl)cc3F)CC2)nc2c1[S+]([O-])CC2 (stereo partly drawn) [Example 111, (R)-2-{2-[4-(4-CHLORO-2-FLUOROPHENYL)-PIPERAZIN-1-YL]-5-OXO-6,7-DIHYDRO-5H-5λ^4-THIENO[3,2-D]PYRIMIDIN-4-YLAMINO}-3-METHYLBUTAN-1-OL] | 92 |  |
| CCC[C@H](CO)Nc1nc(N2CCN(c3ccc(Cl)c(C(F)(F)F)c3)CC2)nc2c1[S+]([O-])CC2 (stereo partly drawn) [Example 56, (R)-2-{2-[4-(4-chloro-3-trifluoromethylphenyl)-piperazin-1-yl]-5-oxo-6,7-dihydro-5H-5λ^4-thieno[3,2-d]pyrimidin-4-ylamino}-pentan-1-ol] | 94 |  |
| [O-][S+]1CCc2nc(N3CCN(c4cc(Cl)cc(Cl)c4)CC3)nc(Nc3cccc(F)c3)c21 (stereo not drawn) [Example 99, {2-[4-(3,5-DICHLOROPHENYL)-PIPERAZIN-1-YL]-5-OXO-6,7-DIHYDRO-5H-5λ^4-THIENO[3,2-D]PYRIMIDIN-4-YL}-(3-FLUOROPHENYL)-AMINE] | 96 |  |
| [O-][S+]1CCc2nc(N3CCN(c4cccc(F)c4)CC3)nc(NC3CCOCC3)c21 (stereo not drawn) [Example 42, {2-[4-(3-FLUOROPHENYL)-PIPERAZIN-1-YL]-5-OXO-6,7-DIHYDRO-5H-5λ^4-THIENO[3,2-D]PYRIMIDIN-4-YL}-(TETRAHYDROPYRAN-4-YL)-AMINE] | 96 |  |
| [O-][S+]1CCc2nc(N3CCN(c4ccc(Cl)c(Cl)c4)CC3)nc(NC3CCOCC3)c21 (stereo not drawn) [Example 58, {2-[4-(3,4-DICHLOROPHENYL)-PIPERAZIN-1-YL]-5-OXO-6,7-DIHYDRO-5H-5λ^4-THIENO[3,2-D]PYRIMIDIN-4-YL}-(TETRAHYDROPYRAN-4-YL)-AMINE] | 96 |  |
| [O-][S+]1CCc2nc(N3CCN(c4ccccc4Cl)CC3)nc(NC3(CO)CC3)c21 (stereo not drawn) [Example 7, (1-{2-[4-(2-chlorophenyl)-piperazin-1-yl]-5-oxo-6,7-dihydro-5H-5λ^4-thieno[3,2-d]pyrimidin-4-ylamino}-cyclopropyl)-methanol] | 94 |  |
| CC(C)[C@H](CO)Nc1nc(N2CCN(c3ccccc3C#N)CC2)nc2c1[S+]([O-])CC2 (stereo partly drawn) [Example 2, 2-{4-[4-((R)-1-hydroxymethyl-2-methylpropylamino)-5-oxo-6,7-dihydro-5H-5λ^4-thieno[3,2-d]pyrimidin-2-yl]piperazin-1-yl}-benzonitrile] | 92 |  |
| [O-][S+]1CCc2nc(N3CCN(c4cccc(F)c4)CC3)nc(Nc3cccc(F)c3)c21 (stereo not drawn) [Example 47, (3-FLUOROPHENYL)-{2-[4-(3-FLUOROPHENYL)-PIPERAZIN-1-YL]-5-OXO-6,7-DIHYDRO-5H-5λ^4-THIENO[3,2-D]PYRIMIDIN-4-YL}-AMINE] | 96 |  |
| CC(C)C(CO)Nc1nc(N2CCN(c3cccc(F)c3)CC2)nc2c1[S+]([O-])CC2 [Example 27, (R)-2-{2-[4-(3-FLUOROPHENYL)-PIPERAZIN-1-YL]-5-OXO-6,7-DIHYDRO-5H-5λ^4-THIENO[3,2-D]PYRIMIDIN-4-YLAMINO}-3-METHYLBUTAN-1-OL] | 96 |  |
| CC(C)C(CO)Nc1nc(N2CCN(c3ccc(Cl)c(C#N)c3)CC2)nc2c1[S+]([O-])CC2 [Example 53, 2-chloro-5-{4-[4-((R)-1-hydroxymethyl-2-methyl-propylamino)-5-oxo-6,7-dihydro-5H-5λ^4-thieno[3,2-d]pyrimidin-2-yl]-piperazin-1-yl}-benzonitrile] | 89 |  |
| [O-][S+]1CCc2nc(N3CCN(c4cccc(F)c4)CC3)nc(NC3(CO)CC3)c21 (stereo not drawn) [Example 32, (1-{2-[4-(3-FLUOROPHENYL)-PIPERAZIN-1-YL]-5-OXO-6,7-DIHYDRO-5H-5λ^4-THIENO[3,2-D]PYRIMIDIN-4-YLAMINO}-CYCLOPROPYL)-METHANOL] | 97 |  |
| CN1C[C@@H](Nc2nc(N3CCN(c4ccc(Cl)c(F)c4)CC3)nc3c2[S+]([O-])CC3)CCC1=O (stereo partly drawn) [Example 64, (S)-5-{2-[4-(4-CHLORO-3-FLUOROPHENYL)-PIPERAZIN-1-YL]-5-OXO-6,7-DIHYDRO-5H-5λ^4-THIENO[3,2-D]PYRIMIDIN-4-YLAMINO}-1-METHYLPIPERIDIN-2-ONE] |  | 94 |
| CN1C[C@@H](Nc2nc(N3CCN(c4cccc(F)c4)CC3)nc3c2[S+]([O-])CC3)CCC1=O (stereo partly drawn) [Example 37, (S)-5-{2-[4-(3-FLUOROPHENYL)-PIPERAZIN-1-YL]-5-OXO-6,7-DIHYDRO-5H-5λ^4-THIENO[3,2-D]PYRIMIDIN-4-YLAMINO}-1-METHYLPIPERIDIN-2-ONE] |  | 97 |
| Cc1cccc(N2CCN(c3nc4c(c(NC(CO)C(C)C)n3)[S+]([O-])CC4)CC2)c1 [Example 30, (R)-3-METHYL-2-[5-OXO-2-(4-m-TOLYLPIPERAZIN-1-YL)-6,7-DIHYDRO-5H-5λ^4-THIENO[3,2-D]PYRIMIDIN-4-YLAMINO]-BUTAN-1-OL] | 94 |  |
| [O-][S+]1CCc2nc(N3CCN(c4ccc(Cl)cc4F)CC3)nc(NC3(CO)CC3)c21 (stereo not drawn) [Example 105, (1-{2-[4-(4-CHLORO-2-FLUOROPHENYL)-PIPERAZIN-1-YL]-5-OXO-6,7-DIHYDRO-5H-5λ^4-THIENO[3,2-D]PYRIMIDIN-4-YLAMINO}-CYCLOPROPYL)-METHANOL] | 94 |  |
| Cc1cc(Cl)ccc1N1CCN(c2nc3c(c(NC4CCOCC4)n2)[S+]([O-])CC3)CC1 (stereo not drawn) [Example 98, {2-[4-(4-CHLORO-2-METHYLPHENYL)-PIPERAZIN-1-YL]-5-OXO-6,7-DIHYDRO-5H-5λ^4-THIENO[3,2-D]PYRIMIDIN-4-YL}-(TETRAHYDROPYRAN-4-YL)-AMINE] | 96 |  |
| [O-][S+]1CCc2nc(N3CCN(c4ccc(Cl)cc4F)CC3)nc(Nc3cccc(F)c3)c21 (stereo not drawn) [Example 109, {2-[4-(4-CHLORO-2-FLUOROPHENYL)-PIPERAZIN-1-YL]-5-OXO-6,7-DIHYDRO-5H-5λ^4-THIENO[3,2-D]PYRIMIDIN-4-YL}-(3-FLUOROPHENYL)-AMINE] | 92 |  |
| [O-][S+]1CCc2nc(N3CCN(c4ccc(Cl)c(F)c4)CC3)nc(Nc3cccc(F)c3)c21 (stereo not drawn) [Example 63, {2-[4-(4-CHLORO-3-FLUOROPHENYL)-PIPERAZIN-1-YL]-5-OXO-6,7-DIHYDRO-5H-5λ^4-THIENO[3,2-D]PYRIMIDIN-4-YL}-(3-FLUOROPHENYL)-AMINE] | 95 |  |
| CC(C)[C@H](CO)Nc1nc(N2CCN(c3ccccc3Cl)CC2)nc2c1[S+]([O-])CC2 (stereo partly drawn) [Example 4, (R)-2-{2-[4-(2-CHLOROPHENYL)-PIPERAZIN-1-YL]-5-OXO-6,7-DIHYDRO-5H-5λ^4-THIENO[3,2-D]PYRIMIDIN-4-YLAMINO}-3-METHYLBUTAN-1-OL] | 88 |  |
| Cc1cc(Cl)ccc1N1CCN(c2nc3c(c(NC4(CO)CC4)n2)[S+]([O-])CC3)CC1 (stereo not drawn) [Example 81, (1-{2-[4-(4-CHLORO-2-METHYLPHENYL)-PIPERAZIN-1-YL]-5-OXO-6,7-DIHYDRO-5H-5λ^4-THIENO[3,2-D]PYRIMIDIN-4-YLAMINO}-CYCLOPROPYL)-METHANOL] | 95 |  |
| Cc1cc(Cl)ccc1N1CCN(c2nc3c(c(N[C@@H](CO)C(C)C)n2)[S+]([O-])CC3)CC1 (stereo partly drawn) [Example 75, (R)-2-{2-[4-(4-CHLORO-2-METHYLPHENYL)-PIPERAZIN-1-YL]-5-OXO-6,7-DIHYDRO-5H-5λ^4-THIENO[3,2-D]PYRIMIDIN-4-YLAMINO}-3-METHYLBUTAN-1-OL] | 90 |  |
| CN1C[C@@H](Nc2nc(N3CCN(c4ccc(Cl)c(Cl)c4)CC3)nc3c2[S+]([O-])CC3)CCC1=O (stereo partly drawn) [Example 59, (S)-5-{2-[4-(3,4-DICHLOROPHENYL)-PIPERAZIN-1-YL]-5-OXO-6,7-DIHYDRO-5H-5λ^4-THIENO[3,2-D]PYRIMIDIN-4-YLAMINO}-1-METHYLPIPERIDIN-2-ONE] |  | 96 |
| Cc1cc(Cl)ccc1N1CCN(c2nc3c(c(N[C@H]4CCC(=O)N(C)C4)n2)[S+]([O-])CC3)CC1 (stereo partly drawn) [Example 90, (S)-5-{2-[4-(4-CHLORO-2-METHYLPHENYL)-PIPERAZIN-1-YL]-5-OXO-6,7-DIHYDRO-5H-5λ^4-THIENO[3,2-D]PYRIMIDIN-4-YLAMINO}-1-METHYLPIPERIDIN-2-ONE] |  | 97 |
| [O-][S+]1CCc2nc(N3CCN(c4ccc(Cl)c(Cl)c4)CC3)nc(NC3(CO)CC3)c21 (stereo not drawn) [Example 57, (1-{2-[4-(3,4-DICHLOROPHENYL)-PIPERAZIN-1-YL]-5-OXO-6,7-DIHYDRO-5H-5λ^4-THIENO[3,2-D]PYRIMIDIN-4-YLAMINO}-CYCLOPROPYL)-METHANOL] | 96 |  |
| [O-][S+]1CCc2nc(N3CCN(c4ccccc4Cl)CC3)nc(Nc3cccc(F)c3)c21 (stereo not drawn) [Example 24, {2-[4-(2-CHLOROPHENYL)-PIPERAZIN-1-YL]-5-OXO-6,7-DIHYDRO-5H-5λ^4-THIENO[3,2-D]PYRIMIDIN-4-YL}-(3-FLUOROPHENYL)-AMINE] | 95 |  |
| Cc1cc(N2CCN(c3nc4c(c(NC(CO)C(C)C)n3)[S+]([O-])CC4)CC2)ccc1Cl [Example 54, (R)-2-{2-[4-(4-chloro-3-methylphenyl)-piperazin-1-yl]-5-oxo-6,7-dihydro-5H-5λ^4-thieno[3,2-d]pyrimidin-4-ylamino}-3-methylbutan-1-ol] | 63 |  |
